Key:
[1] = biological target: PI3Kα (p110[H1047R]/p85) kinase (Homo sapiens, UniProt P42336, H1047R); assay: PI3Kα (p110[H1047R]/p85) kinase ADP-Glo Assay; format: biochemical; conditions: 25 uM ATP; for selectivity: WT/H1047R: ADP-Glo Assay IC50 ratio
Method: PI3Kα (p110[H1047R]/p85) kinase ADP-Glo Assay. Certain compounds disclosed herein were tested for inhibition of PI3Kα (p110[H1047R]/p85) kinase in assays based on the ADP-Glo™ Kinase Assay methodology. The assays were carried out in 384-well white plates in a reaction mixture containing PI3Kα (p110[H1047R]/p85) kinase, 25 µM ATP, 5.35 µg/ml PI(4,5)P2:PS Lipid Kinase Substrate and […] compound in buffer containing 50 mM HEPES pH7.5, 50 mM NaCl, 3 mM MgCl2, 0.0025% BSA and 2 mM DTT. PI3Kα (p110[H1047R]/p85) kinase was incubated with Lipid Kinase Substrate and compound for 30 minutes at room temperature and the reaction was initiated by the addition of ATP.
After reaction at room temperature for 120 minutes, ADP-Glo™ reagents were added to terminate the kinase reaction and deplete the remaining ATP according to the manufacture's instruction (Promega Corporation). After incubation at room temperature for 1 hour, Kinase Detection Reagent (prepared by reconstituting the lyophilized Kinase Detection Substrate with Kinase Detection Buffer of the kit) was added to convert the ADP to ATP and to allow for the newly synthesized ATP to be measured using a luciferase/luciferin reaction. After incubation at room temperature for 0.5 hour, chemiluminescence signals were recorded on a PHERAstar FSX plate reader (BMG Labtech). The chemiluminescence generated in this assay correlates to the amount of ADP generated in the kinase assay, indicating kinase activity. […] The IC50 for each compound was derived from fitting the data to the four-parameter logistic equation by Dotmatics.

[2] = tested on: PI3Kα H1047R mutated cell line T-47D cells; assay: Cell Proliferation Assay (CellTiter-Glo), T-47D; format: cell-based; conditions: for IC50: Homo sapiens, T47D, 72 h, T-47D, 3 days treatment; for Selectivity: SK-BR-3/T-47D (cell proliferation): cell proliferation IC50 ratio
Method: Cell Culture Maintenance. The T-47D (ATCC, HTB-133) cell line was obtained from the American Type Culture Collection. Cells were maintained in RPMI1640 medium (Gibco, REF #22400105) supplemented with 10% Fetal Bovine Serum (Gibco, REF #10091148). Cultures were maintained in a humidified incubator at 37° C. under 5% CO2/95% air.
Cell Proliferation Assay. PI3Kα H1047R mutated cell line T-47D cells and WT cell line SK-BR-3 were seeded at a density of 3×10^3 cells per well in 96 well plate (Xinyou Biotechnology, 062096) in 95 μL of culture medium, overnight. Compounds dissolved in 10 mM stock solutions in DMSO were serially diluted 1:3 in DMSO to generate a 9-point dilution series and plated using an INTEGRA ASSIST Plus pipetting robot. A 20× intermediate compound dilution plate in RPMI1640 medium (200 M starting compound concentration in 2% DMSO) was then prepared. Five μL of intermediate serially diluted compounds were added to the cell plate to final concentrations ranging from […] to 1 nM in 0.1% DMSO. 0.1% DMSO alone was used to establish the maximum signal and medium without cells was for minimum signal. After 3 days treatment, equilibrated the plate and its contents at room temperature for approximately 30 minutes. Added 30 μL CellTiter-Glo® Reagent (Promega, REF #G7571) to each well. Then mixed contents for 5 min on plate shaker to induce cell lysis. Incubated at room temperature for 10 minutes to stabilize luminescent signal. The plates were read on PHERAstar FSX Microplate reader using standard luminescence settings.
Relative IC50 values were determined using luminescence units by calculating percent inhibition with respect to the in-plate “MIN” (medium only) and “MAX” (0.1% DMSO) controls. The data were analyzed using a 4-parameter nonlinear logistic equation (four-parameter logistic concentration-response curve): Y=bottom+[(top−bottom)/1+(X/IC50) slope] • where Y=% inhibition, X=concentration of inhibitor, bottom=minimum value of y attained by curve-fit, top=maximum value of y attained by curve-fit and slope=steepness of curve at the IC50.

Chain of PI3Kα (p110[H1047R]/p85) kinase (P42336 whole entry H1047R): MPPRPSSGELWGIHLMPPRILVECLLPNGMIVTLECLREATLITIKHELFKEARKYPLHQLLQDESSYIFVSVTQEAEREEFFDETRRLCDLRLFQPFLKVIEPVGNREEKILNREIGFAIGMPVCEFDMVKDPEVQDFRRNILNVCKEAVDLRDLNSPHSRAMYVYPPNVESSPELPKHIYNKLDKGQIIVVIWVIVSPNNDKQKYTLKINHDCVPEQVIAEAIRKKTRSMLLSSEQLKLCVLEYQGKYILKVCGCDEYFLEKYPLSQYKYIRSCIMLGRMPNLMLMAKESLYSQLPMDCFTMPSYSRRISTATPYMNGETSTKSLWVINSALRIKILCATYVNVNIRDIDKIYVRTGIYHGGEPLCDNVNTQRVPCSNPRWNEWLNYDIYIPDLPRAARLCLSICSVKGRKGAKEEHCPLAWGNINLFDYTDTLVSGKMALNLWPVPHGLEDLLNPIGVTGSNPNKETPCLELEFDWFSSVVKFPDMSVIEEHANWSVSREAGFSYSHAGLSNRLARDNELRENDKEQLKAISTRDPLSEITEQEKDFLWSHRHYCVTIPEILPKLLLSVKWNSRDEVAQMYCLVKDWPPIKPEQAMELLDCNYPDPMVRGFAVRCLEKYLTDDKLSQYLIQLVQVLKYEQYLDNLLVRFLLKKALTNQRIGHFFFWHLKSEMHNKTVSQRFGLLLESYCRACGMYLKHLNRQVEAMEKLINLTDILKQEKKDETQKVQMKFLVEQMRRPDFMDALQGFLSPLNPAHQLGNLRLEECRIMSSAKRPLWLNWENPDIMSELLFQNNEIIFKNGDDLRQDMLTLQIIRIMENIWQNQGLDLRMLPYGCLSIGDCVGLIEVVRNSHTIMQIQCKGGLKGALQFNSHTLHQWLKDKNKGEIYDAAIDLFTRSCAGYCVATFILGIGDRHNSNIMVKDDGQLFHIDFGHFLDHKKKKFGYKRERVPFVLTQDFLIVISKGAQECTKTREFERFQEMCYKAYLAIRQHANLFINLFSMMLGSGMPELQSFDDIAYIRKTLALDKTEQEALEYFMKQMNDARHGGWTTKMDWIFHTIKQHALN
Chain of PI3Kα (p110[H1047R]/p85) kinase (P27986 whole entry partner): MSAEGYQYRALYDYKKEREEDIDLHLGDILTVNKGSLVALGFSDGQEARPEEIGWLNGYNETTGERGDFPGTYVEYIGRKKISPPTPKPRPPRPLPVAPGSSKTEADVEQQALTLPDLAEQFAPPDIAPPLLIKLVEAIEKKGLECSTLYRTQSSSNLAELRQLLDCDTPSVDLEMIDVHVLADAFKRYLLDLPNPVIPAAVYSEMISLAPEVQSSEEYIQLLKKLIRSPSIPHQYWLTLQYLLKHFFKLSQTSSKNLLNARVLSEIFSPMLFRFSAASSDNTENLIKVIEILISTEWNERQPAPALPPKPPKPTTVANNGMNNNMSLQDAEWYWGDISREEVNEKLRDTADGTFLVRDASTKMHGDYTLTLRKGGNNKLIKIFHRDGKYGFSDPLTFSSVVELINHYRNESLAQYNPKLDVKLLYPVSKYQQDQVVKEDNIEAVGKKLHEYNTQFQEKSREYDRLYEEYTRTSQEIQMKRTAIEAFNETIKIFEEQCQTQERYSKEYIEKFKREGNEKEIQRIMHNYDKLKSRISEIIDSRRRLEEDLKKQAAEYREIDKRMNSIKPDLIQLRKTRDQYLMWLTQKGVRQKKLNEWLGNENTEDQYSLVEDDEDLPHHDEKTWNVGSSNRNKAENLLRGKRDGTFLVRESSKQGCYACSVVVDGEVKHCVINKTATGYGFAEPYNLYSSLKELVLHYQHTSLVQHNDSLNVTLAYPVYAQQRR

IC50 [1] [µM] | selectivity: WT/H1047R [1] | IC50 [2] [µM] | SMILES | Selectivity: SK-BR-3/T-47D (cell proliferation) [2]
0.183 | 32.6 | 0.158 | Cc1cc(C(C)Nc2ccccc2C(=O)O)c2cc(-c3ccc(F)cc3)n(C)c(=O)c2c1 (stereo not shown) [Example 8, 2-((1-(3-(4-fluorophenyl)-2,7-dimethyl-1-oxo-1,2-dihydroisoquinolin-5-yl)ethyl)amino)benzoic acid] | >63
0.187 | 14.5 | 0.143 | Cc1cc(C(C)Nc2ccccc2C(=O)O)c2cc(-c3ccc(F)c(F)c3)n(C)c(=O)c2c1 (stereo not shown) [Example 9, 2-((1-(3-(3,4-difluorophenyl)-2,7-dimethyl-1-oxo-1,2-dihydroisoquinolin-5-yl)ethyl)amino)benzoic acid] | >70
0.224 | 36.1 | 0.129 | Cc1cc(C(C)Nc2ccccc2C(=O)O)c2cc(-c3cc(F)cc(F)c3)n(C)c(=O)c2c1 (stereo not shown) [Example 10, 2-((1-(3-(3,5-difluorophenyl)-2,7-dimethyl-1-oxo-1,2-dihydroisoquinolin-5-yl)ethyl)amino)benzoic acid] | >78
0.21 | 100.2 | 0.49 | Cc1cc(C(C)Nc2ccccc2C(=O)O)c2cc(-c3ccc(F)cc3F)n(C)c(=O)c2c1 (stereo not shown) [Example 11, 2-((1-(3-(2,4-difluorophenyl)-2,7-dimethyl-1-oxo-1,2-dihydroisoquinolin-5-yl)ethyl)amino)benzoic acid] | >20.42

The next lines start with the compound.

SMILES | IC50 [1] [µM] | selectivity: WT/H1047R [1] | IC50 [2] [µM] | Selectivity: SK-BR-3/T-47D (cell proliferation) [2]
Cc1cc(C(C)Nc2ccccc2C(=O)O)c2cc(-c3ccccc3)n(C)c(=O)c2c1 (stereo not shown) [Example 1, 2-((1-(2,7-dimethyl-1-oxo-3-phenyl-1,2-dihydroisoquinolin-5-yl)ethyl)amino)benzoic acid] | 0.17 | 16.3 | 0.0846 | >118
Cc1cc(C(C)Nc2ccccc2C(=O)O)c2cc(-c3ccccc3C)n(C)c(=O)c2c1 (stereo not shown) [Example 2, 2-((1-(2,7-dimethyl-1-oxo-3-(o-tolyl)-1,2-dihydroisoquinolin-5-yl)ethyl)amino)benzoic acid] | 0.161 | 139.3 | 1.23 | >8.2
Cc1cc(C(C)Nc2ccccc2C(=O)O)c2cc(-c3cccc(C#N)c3)n(C)c(=O)c2c1 (stereo not shown) [Example 3, 2-((1-(3-(3-cyanophenyl)-2,7-dimethyl-1-oxo-1,2-dihydroisoquinolin-5-yl)ethyl)amino)benzoic acid] | 0.671 | 14.7 | 0.143 | >70
Cc1cc(C(C)Nc2ccccc2C(=O)O)c2cc(-c3cccc(C(C)(C)C#N)c3)n(C)c(=O)c2c1 (stereo not shown) [Example 5, 2-((1-(3-(3-(2-cyanopropan-2-yl)phenyl)-2,7-dimethyl-1-oxo-1,2-dihydroisoquinolin-5-yl)ethyl)amino)benzoic acid] | 0.375 | 14.1 | 0.52 | >19
Cc1cc(C(C)Nc2ccccc2C(=O)O)c2cc(-c3ccccc3F)n(C)c(=O)c2c1 (stereo not shown) [Example 6, 2-((1-(3-(2-fluorophenyl)-2,7-dimethyl-1-oxo-1,2-dihydroisoquinolin-5-yl)ethyl)amino)benzoic acid] | 0.162 | 17.8 | 0.327 | >31
Cc1cc(C(C)Nc2ccccc2C(=O)O)c2cc(-c3cccc(F)c3)n(C)c(=O)c2c1 (stereo not shown) [Example 7, 2-((1-(3-(3-fluorophenyl)-2,7-dimethyl-1-oxo-1,2-dihydroisoquinolin-5-yl)ethyl)amino)benzoic acid] | 0.164 | 15.3 | 0.101 | >98.8

From US20260125346A1, “Isoquinolinone Derivatives and 4H-Quinolizinone Derivatives and Pharmaceutical Compositions Thereof for the Treatment of Disease” (BeOne Medicines I GmbH, priority 2023, published 2026)
